Results as given in the NIST ThermoML archive (doi:10.1021/je900977e).
“And” between values parts separate entries of the source, which are not always exact repeats. Identical values can stand only once. ± gives the expanded uncertainty stated by the source.

Details: 313.15 K; Liquid; Closed cell (Static) method

| Compound | vapor or sublimation pressure |
| --- | --- |
| c1ccccc1 [benzene] | 24.4 ± 0.094 kPa and 24.38 ± 0.094 kPa |
| CC(C)OC(C)C [diisopropyl ether] | 37.11 ± 0.14 kPa and 37.13 ± 0.14 kPa |
| CC(C)O [propan-2-ol] | 13.9 ± 0.06 kPa and 13.89 ± 0.06 kPa |
